Measured values reported in patent US8658798B2, “Herbicide triazolylpyridine ketones” (Bayer Cropscience AG, priority 2007, dated 2014).

How the values were obtained:
Type in all cases: in vivo
[1] = test system: Green bristle grass; assay: Herbicide effect test against field weed (foliage spray treatment after germination), Test example 2; conditions: foliage spray treatment after germination (2nd-3rd leaf stage); dosage 500 g ai/ha; 2 weeks after treatment; 100% = complete death
Description: (§1) • Preparing preparation of active compound • Carrier: DMF 5 parts by weight • Emulsifier: benzyloxy polyglycol ether 1 part by weight
(§2) A preparation of active compound is obtained as an emulsion by mixing 1 part by weight of active compound with the above amounts of carrier and emulsifier. A prescribed amount of preparation is diluted with water.
(§3) In a greenhouse, seeds of field weeds [livid amaranth (Amaranthus), green bristle grass (Setaria)] were sown on the surface layer of 16 cm^2 pots filled with field soil (sandy loam) , and covered with soil. Here, one kind of grass was sown for one pot. Immediately after sowing, the prescribed diluted solutions which were prepared according to the above preparation method of the preparation of respective active compounds were sprayed to soil. After 2 weeks from the treatment, the herbicide effect of each of the compounds was examined. In the evaluation of herbicide effect, complete death was evaluated as 100%, and the case of no herbicide effect was evaluated as 0%. When the herbicide effect is 80% or more, such active compounds are evaluated to have practical utility as a herbicide.
In a greenhouse, to 16 cm^2 pots filled with field soil (sandy loam), seedling plants (2nd-3rd leaf stage) of a field weed (Green bristle grass) were transplanted. After 1 day, the prescribed diluted solutions of preparations of respective active compounds, which were prepared according to the above Test example 1, were sprayed from the upside of the plant body. After 2 weeks from the treatment, the herbicide effect of each of the compounds was examined. Evaluation of herbicidal effect was carried out similarly to Test example 1.

[2] = test system: corn (Zea); assay: Selective herbicide effect test to field crop (soil spray treatment before germination), Test example 3, phytotoxicity; conditions: 2 weeks after treatment, 100% = complete death, 0% = no phytotoxicity
Description: as §1, §2
(§4) In a greenhouse, seeds of field crops [wheat (Triticum), corn (Zea), soy bean (Glycine)] and weeds [barnyardgrass (Echinochloa), southern crabgrass (Digitaria), livid amaranth (Amaranthus), fat hen (Chenopodium)] were sown on the surface layer of 16 cm^2 pots filled with field soil (sandy loam), and covered with soil. After 1 day, the prescribed diluted solutions of preparations of respective active compounds, which were prepared according to Test example 1, were sprayed to the soil. After 2 weeks from the treatment, phytotoxicity to crops and herbicide effect of respective compounds were examined. In the evaluation of herbicide effect and phytotoxicity, complete death was evaluated as 100%, and the case of no herbicide effect or no phytotoxicity was evaluated as 0%. When the herbicide effect is 80% or more, such active compounds are evaluated to have practical utility as a herbicide. When phytotoxicity is 20% or less, such active compounds are evaluated to have excellent safety as a herbicide.

[3] = test system: soy bean (Glycine); assay: as above; conditions: 2 weeks after treatment, 100% = complete death, 0% = no phytotoxicity
Description: as §1, §2, §4

[4] = test system: wheat (Triticum); assay: as above; conditions: 2 weeks after treatment, 100% = complete death, 0% = no phytotoxicity
Description: as §1, §2, §4

[5] = test system: barnyardgrass (Echinochloa); assay: Selective herbicide effect test to field crop (soil spray treatment before germination), Test example 3, herbicide effect; conditions: 2 weeks after treatment, 100% = complete death
Description: as §1, §2, §4

[6] = test system: fat hen (Chenopodium); assay: as above; conditions: 2 weeks after treatment, 100% = complete death
Description: as §1, §2, §4

[7] = test system: livid amaranth (Amaranthus); assay: as above; conditions: 2 weeks after treatment, 100% = complete death
Description: as §1, §2, §4

[8] = test system: southern crabgrass (Digitaria); assay: as above; conditions: 2 weeks after treatment, 100% = complete death
Description: as §1, §2, §4

[9] = test system: corn; assay: Selective herbicide effect test to field crop (foliage spray treatment after germination), Test example 4, phytotoxicity; conditions: 14 days after spraying, 100% = complete death, 0% = no phytotoxicity
Description: as §1, §2, §4
(§5) In a greenhouse, respective seeds of weeds (barnyardgrass, southern crabgrass, fat hen, and livid amaranth) and crops (wheat, corn, and soy bean) were sown on the surface layer of pots filled with field soil, and covered with soil. After one day and 10 days (average 2nd leaf stage for weeds) from the sowing and covering the seeds with soil, the prescribed diluted solutions of preparations of respective active compounds, which were prepared according to Test example 1, were uniformly sprayed onto the soil surfaces of respective test pots and the foliage parts of the plant bodies.
(§6) After 14 days from the spraying, the degree of herbicide effect was examined. Evaluation of herbicide effect and phytotoxicity were carried out similarly to Test example 3.

[10] = test system: soy bean; assay: as above; conditions: 14 days after spraying, 100% = complete death, 0% = no phytotoxicity
Description: as §1, §2, §4, §5, §6

[11] = test system: wheat; assay: as above; conditions: 14 days after spraying, 100% = complete death, 0% = no phytotoxicity
Description: as §1, §2, §4, §5, §6

[12] = test system: barnyardgrass; assay: Selective herbicide effect test to field crop (foliage spray treatment after germination), Test example 4, herbicide effect; conditions: 14 days after spraying, 100% = complete death, 0% = no effect
Description: as §1, §2, §4, §5, §6

[13] = test system: fat hen; assay: as above; conditions: 14 days after spraying, 100% = complete death, 0% = no effect
Description: as §1, §2, §4, §5, §6

[14] = test system: livid amaranth; assay: as above; conditions: 14 days after spraying, 100% = complete death, 0% = no effect
Description: as §1, §2, §4, §5, §6

[15] = test system: southern crabgrass; assay: as above; conditions: 14 days after spraying, 100% = complete death, 0% = no effect
Description: as §1, §2, §4, §5, §6

[16] = test system: green bristle grass (Setaria); assay: Herbicide effect test against field weed (soil spray treatment before germination), Test example 1; conditions: dosage 500 g ai/ha, 2 weeks after treatment, 100% = complete death, 0% = no effect
Description: as §1, §2, §3

[17] = test system: livid amaranth (Amaranthus); assay: as above; conditions: dosage 500 g ai/ha, 2 weeks after treatment, 100% = complete death, 0% = no effect
Description: as §1, §2, §3

| SMILES | Herbicide effect, Green bristle grass [1] [%] | herbicide effect, Barnyardgrass ([5]; dosage 320 g/ha) [%] | herbicide effect, Fat hen ([6]; dosage 320 g/ha) [%] | Herbicide effect, Livid amaranth ([7]; dosage 320 g/ha) [%] | herbicide effect, Southern crabgrass ([8]; dosage 320 g/ha) [%] | phytotoxicity, Corn ([9]; 320 g/ha) [%] | phytotoxicity, Soy bean ([10]; 320 g/ha) [%] | phytotoxicity, Wheat ([11]; 320 g/ha) [%] | herbicide effect, Barnyardgrass ([12]; 320 g/ha) [%] | herbicide effect, Fat hen ([13]; 320 g/ha) [%] | Herbicide effect, Livid amaranth ([14]; 320 g/ha) [%] | herbicide effect, Southern crabgrass ([15]; 320 g/ha) [%] | other results |
| --- | --- | --- | --- | --- | --- | --- | --- | --- | --- | --- | --- | --- | --- |
| Cc1nc(-n2cncn2)ccc1C(=O)C1=C(O)CCC(C)C1=O (stereo not shown) [1-115] | 100 | 100 | 100 | 90 | 100 | – | – | – | – | – | – | – | phytotoxicity, Corn ([2]; dosage 320 g/ha): 0%; phytotoxicity, Soy bean ([3]; dosage 320 g/ha): 10%; phytotoxicity, Wheat ([4]; dosage 320 g/ha): 0% |
| CS(=O)(=O)Cc1nc(-n2cncn2)ccc1C(=O)C1=C(O)CCCC1=O [1-56] | – | – | – | – | – | 50 | 50 | 0 | 100 | 90 | 80 | 100 | – |
| Cc1nc(-n2cncn2)ccc1C(=O)c1c(C)nn(C)c1O [2-229] | – | – | – | – | – | 50 | 60 | 10 | 100 | 90 | 100 | 100 | Herbicide effect, Green bristle grass [16]: 100%; Herbicide effect, Livid amaranth [17]: 100% |
| CSCc1nc(-n2cncn2)ccc1C(=O)C1=C(O)CCCC1=O [1-36] | 100 | – | – | – | – | 10 | 50 | 0 | 100 | 90 | 80 | 100 | – |
| Cc1nc(-n2cncn2)ccc1C(=O)C1C(=O)CCCC1=O [1-1, 2-{[2-methyl-6-(1H-1,2,4-triazol-1-yl)pyridin-3-yl]carbonyl}cyclohexan-1,3-dione] | – | 100 | 100 | 80 | 100 | – | – | – | – | – | – | – | Herbicide effect, Green bristle grass [16]: 100%; Herbicide effect, Livid amaranth [17]: 100% |
| Cc1nc(-n2cncn2)ccc1C(=O)C1=C(O)CCC(C)(C)C1=O [1-457] | 100 | – | – | – | – | 50 | 40 | 20 | 100 | 100 | 100 | 100 | – |
| Cc1nc(-n2cncn2)ccc1C(=O)C1=C(O)C(C)(C)C(=O)C(C)(C)C1=O [1-685] | – | – | – | – | – | – | – | – | – | – | – | – | phytotoxicity, Corn ([2]; dosage 80 g/ha): 30%; phytotoxicity, Soy bean ([3]; dosage 80 g/ha): 10%; phytotoxicity, Wheat ([4]; dosage 80 g/ha): 40%; herbicide effect, Barnyardgrass ([5]; dosage 80 g/ha): 100%; herbicide effect, Fat hen ([6]; dosage 80 g/ha): 90%; Herbicide effect, Livid amaranth ([7]; dosage 80 g/ha): 90%; herbicide effect, Southern crabgrass ([8]; dosage 80 g/ha): 100% |
| Cc1nc(-n2cncn2)ccc1C(=O)c1cnn(C)c1O [2-1] | – | – | – | – | – | – | – | – | – | – | – | – | Herbicide effect, Green bristle grass [16]: 100%; Herbicide effect, Livid amaranth [17]: 100%; phytotoxicity, Corn ([9]; 80 g/ha): 5%; phytotoxicity, Soy bean ([10]; 80 g/ha): 50%; phytotoxicity, Wheat ([11]; 80 g/ha): 0%; herbicide effect, Barnyardgrass ([12]; 80 g/ha): 100%; herbicide effect, Fat hen ([13]; 80 g/ha): 90%; Herbicide effect, Livid amaranth ([14]; 80 g/ha): 100%; herbicide effect, Southern crabgrass ([15]; 80 g/ha): 95% |
| O=C1CCCC(O)=C1C(=O)c1ccc(-n2cncn2)nc1COCC(F)(F)F [1-28] | – | 100 | 100 | 90 | 100 | – | – | – | – | – | – | – | phytotoxicity, Corn ([2]; dosage 320 g/ha): 5%; phytotoxicity, Soy bean ([3]; dosage 320 g/ha): 10%; phytotoxicity, Wheat ([4]; dosage 320 g/ha): 0% |
| COCCOCc1nc(-n2cncn2)ccc1C(=O)C1=C(O)CCCC1=O [1-66] | 90 | – | – | – | – | 50 | 50 | 10 | 100 | 100 | 100 | 100 | – |
| Cc1nc(-n2cncn2)ccc1C(=O)c1cnoc1C1CC1 [3-115] | 100 | 100 | 100 | 90 | 100 | – | – | – | – | – | – | – | phytotoxicity, Corn ([2]; dosage 320 g/ha): 10%; phytotoxicity, Soy bean ([3]; dosage 320 g/ha): 20%; phytotoxicity, Wheat ([4]; dosage 320 g/ha): 5% |
